The record followed here is patent US20220227765A1, “PYRIDO-INDOLE ANALOGUES AS GPX4 INHIBITORS” (Ferro Therapeutics, Inc., priority 2019, published 2022).

In brackets after ≈: the same amount, converted by molar mass. Like-named read-outs stand apart in the source and are kept apart here.

One data set is described as follows: Human blood stability. Type of data set: in vitro ADME.
Data set [1] is described as follows: Rat hepatocyte metabolic stability. Type of data set: in vitro ADME.
The nature of data set [2]: Human hepatocyte metabolic stability. It is filed as in vitro ADME.
The next data set has as its system SJSA-1. The data set can be described thus: Cell proliferation (Alamar Blue) assay, SJSA-1. It is filed as cell-based, human. The conditions noted are these: Homo sapiens, SJSA-1, 24 h. On the procedure:
(§1) Cell viability assay was performed to assess the potency of the compounds in human cancer cell lines 786-0 (renal cell carcinoma) and SJSA-1 (osteosarcoma). Additional cell lines, such as pancreatic cancer cell lines (Panc 02.13, BxPC-3, Panc 12, Panc 02.03, Panc 6.03, PSN-1, HPAC, and Capan-1), prostate cancer cell lines (PC-3, DU145, 22Rv1, NCI-H660, BPH1, LNCaP, BM-1604, and MDA PCa 2b), etc., can be tested in a similar method.
(§2) Cells (SJSA-1, 786-0 and A431) were seeded (5000 cells/100 μL/well) in 96-well tissue culture plate and incubated at 37° C./5% CO2 for 16-24 hours. The cells were then treated with compounds (25 μL of 5×). The compound concentrations were 10-0.0005 μM prepared in 3-fold serial dilutions with final DMSO concentration of 1%. The plates were then incubated for 24 h at 37° C./5% CO2 in a moist environment. Then Alamar Blue™ reagent (final concentration 1×-12.5 μL) was added to each well and incubated for 1.5 hours at 37° C./5% CO2. The plates were read on fluorescence reader at 540 nm excitation and 590 nm emission wavelengths. The IC50 values were subsequently determined using a sigmoidal dose-response curve (variable slope) in GraphPad Prism® 5 software. Table A-3, Table B-3 and Table C-3 show cell proliferation data for certain compounds as described herein.
Background: Alamar Blue is a resazurin reagent that responds to reducing activity.

Data set [3] is described as follows: Kinetic solubility (PBS, pH 7.4). Type of data set: physicochemical. The conditions noted are these: for solubility kinetic: aqueous buffer, kinetic from dmso stock.
The subject of another data set is 786-O. The data set can be described thus: Cell proliferation (Alamar Blue) assay, 786-O. Type of data set: cell-based, human. The conditions noted are these: Homo sapiens, 786-0, 24 h. Here is the method:
as §1, §2

A short description of data set [4]: CD-1 Mouse Whole Blood Stability Assay. It is filed as in vitro ADME. The conditions noted are these: Table B-6, incubation at 37° C.
The next data set deals with A431. The data set can be described thus: Cell proliferation (Alamar Blue) assay, A431. It is filed as cell-based, human. The conditions noted are these: Homo sapiens, A-431, 24 h. On the procedure: as §1, §2
Data set [5] is described as follows: Equilibrium solubility at different pHs and with SBECD. Type of data set: physicochemical. The conditions noted are these: thermodynamic from solid.
Where [6] appears, read: Table B-3, head prints SJSB-1, 24 h, read-out: IC50 (μM) SJSB-1.
[7] abbreviates: aqueous buffer, pH 3.0 PBS buffer, read-out: Eq. solubility pH 3.0 PBS buffer.
The mark [8] stands for this setting: aqueous with cosolvent or surfactant or cyclodextrin, 20% SBECD (sulfobutyl ether cyclodextrin), read-out: Eq. solubility 20% SBECD.
Setting [9] is: Table C-3, SJSA-1 cells, 24 h, read-out: IC50 (μM) SJSA-1.

As for `C#CC(=O)N1[C@@H](CCCC)Cc2c([nH]c3ccccc23)[C@@H]1c1ccc(C(=O)NC2CCC2)nc1` [Compound B-5, 5-((1S,3S)-3-butyl-2-propioloyl-2,3,4,9-tetrahydro-1H-pyrido[3,4-b]indol-1-yl)-N-cyclobutylpicolinamide], the “human blood stability % remaining” value in the data set “Human blood stability” (15 min) is listed as 36%_15; in “Human blood stability” (30 min) it was 41%_30; in “Human blood stability” (45 min), 11%_45; in “Human blood stability” (60 min), 9%_60; in the data set “Human blood stability” (120 min), 0%_120. The “rat hepatocytes extr. Ratio” value in data set [1] turned out to be 0.9. In addition, the “human hepatocytes extr. Ratio” value in [2] is 0.82. Moreover, the half-maximal inhibitory concentration (IC50) – broadly, the concentration needed to halve the response being measured – is 0.002 µM with SJSA-1 (setting [6]) and 0.002 µM with 786-O (Table B-3, 786-O cells). Also, the solubility (kinetic) (commonly solubility judged after dilution from a stock solution rather than from solid) in [3] (Table B-4) turned out to be 1 µM (≈ 0.455 µg/mL).
Consider `C#CC(=O)N1[C@@H](CCCC)Cc2c([nH]c3c(F)cc(F)cc23)[C@@H]1C1CCN(C(=O)OC)CC1` [Compound B-28], for which the “CD-1 Mouse Whole Blood Stability % Remaining” value in [4] (0 min) is listed as 100.0%; in data set [4] (30 min), 9.6%; in data set [4] (60 min) it was 2.1%. The IC50 is 0.06 µM with SJSA-1 (setting [6]); 0.032 µM with 786-O (Table B-3, 786-O cells); 8.1 µM in the data set with A431 (Table B-3, A431 cells).
As to `C#CC(=O)N1[C@@H](CCCC)Cc2c([nH]c3c(F)cc(F)cc23)[C@@H]1c1ccc(N2CCN(C(C)=O)CC2)c(C#N)c1` [Compound B-32], the solubility (usually the dissolved amount per volume that the medium holds) in data set [5] (aqueous buffer, pH 3.0, read-out: Eq. solubility pH 3.0) is under 1 µg/mL; in data set [5] (setting [7]), under 1 µg/mL; in data set [5] (setting [8]), 9 to 18 µg/mL (≈ 16.6 to 33.1 µM). For the same compound, the IC50 is 0.029 µM with SJSA-1 (setting [6]) and 0.018 µM in the data set on 786-O (Table B-3, 786-O cells). In data set [3] (Table B-7), this compound returned a solubility (kinetic) of under 1 µM.
`C#CC(=O)N1[C@@H](CCCC)Cc2c([nH]c3c(F)cc(F)cc23)[C@@H]1c1cnn(C)c1` [Compound B-33]: the solubility in data set [5] (setting [7]) was under 1 µg/mL; in data set [5] (setting [8]), over 1090 µg/mL. Further, the IC50 is 0.257 µM with SJSA-1 (setting [6]); 0.121 µM with 786-O (Table B-3, 786-O cells); over 10 µM with A431 (Table B-3, A431 cells).
Turning to `C#CC(=O)N1[C@@H](CCCC)Cc2c([nH]c3c(F)cc(F)cc23)[C@@H]1c1ccc(NC(=O)OCC)cc1` [Compound B-35], the solubility in [5] (setting [8]) was 10 µg/mL (≈ 20.9 µM). The “human blood stability % remaining” value was 107%_15 in “Human blood stability” (15 min); 31%_30 in the data set “Human blood stability” (30 min); 15%_45 in “Human blood stability” (45 min); 8.4%_60 in the data set “Human blood stability” (60 min); 0%_120 in “Human blood stability” (120 min). In addition, the “rat hepatocytes extr. Ratio” value in data set [1] came to 0.78. The “rat hepatocytes % met @ 180 min” value in data set [1] (180 min) is recorded as 94%. The half-life in data set [1] (rat hepatocytes, read-out: rat hepatocytes T1/2) was found to be 1.13 h; in data set [2] (human hepatocytes, read-out: human hepatocytes T1/2), 1.63 h. In addition, the hepatocyte CLint is 41 µL/min/1e6 cells in [1] (rat hepatocytes, read-out: rat hepatocytes h Clintr (μL/min/10^6 cells)) and 28 µL/min/1e6 cells in data set [2] (human hepatocytes, read-out: human hepatocytes h Clintr (μL/min/10^6 cells)). Also, the “human hepatocytes extr. Ratio” value in data set [2] turned out to be 0.8. In addition, the “human hepatocytes % met @ 180 min” value in data set [2] (180 min) is 73%. Besides, the IC50 in the data set with SJSA-1 (setting [6]) amounted to 0.019 µM; in the data set with 786-O (Table B-3, 786-O cells), 0.01 µM; in the data set with A431 (Table B-3, A431 cells) it was 6.6 µM. In data set [3] (Table B-7), the “Kinetic solubility (PBS, pH 7.4, μM)” value is listed as under 1 μM. Further, in data set [3] (Table B-4), the solubility (kinetic) is under 1 µM.
Take `C#CC(=O)N1[C@@H](CCCC)Cc2c([nH]c3c(F)cc(F)cc23)[C@@H]1c1ccc(-c2nnn[nH]2)cc1` [Compound B-50]: the “CD-1 Mouse Whole Blood Stability % Remaining” value is given as 100% in [4] (0 min), 22.3% in data set [4] (30 min) and 10.5% in data set [4] (60 min).
With `C#CC(=O)N1[C@@H](CCCC)Cc2c([nH]c3c(F)cc(F)cc23)[C@@H]1c1ccc(C#N)nc1` [Compound B-51], the “CD-1 Mouse Whole Blood Stability % Remaining” value in data set [4] (0 min) turned out to be 100%; in [4] (30 min), 0%; in data set [4] (60 min) it was 0%. Also, the IC50 stood at 0.01 µM with SJSA-1 (setting [6]); 0.07 µM in the data set on 786-O (Table B-3, 786-O cells); 1.1 µM with A431 (Table B-3, A431 cells).
`C#CC(=O)N1[C@@H](CCCC)Cc2c([nH]c3ccccc23)[C@@H]1C12CC3CC(CC(C3)C1)C2` [Compound B-94]: the half-maximal inhibitory concentration (IC50) was 1.37 µM in the data set on SJSA-1 (setting [6]); 1.06 µM in the data set on 786-O (Table B-3, 786-O cells); over 10 µM in the data set with A431 (Table B-3, A431 cells).
On the same counts, the results for `C#CC(=O)N1C(CCCC)Cc2c([nH]c3ccccc23)[C@@H]1c1ccc(C(O)CO)cc1` (stereo partly shown) [Compound B-95] are 0.74 µM, 0.32 µM and over 10 µM.
The like results for `C#CC(=O)N1[C@@H](CCCC)Cc2c(n(CC#N)c3c(F)cc(F)cc23)[C@@H]1c1ccc(NC(=O)OCCCCC)cc1` [Compound B-97] were, in that order, 0.0455 µM, 0.071 µM and 6.35 µM.
The like results for `C#CC(=O)N1[C@@H](CCCC)Cc2c([nH]c3c(F)cc(F)cc23)[C@@H]1C1CCC2(CC1)OCCO2` [Compound B-99] were, in that order, 0.504 µM, 0.207 µM and over 10 µM.
Regarding `C#CC(=O)N1[C@@H](CCCC)Cc2c(sc3ccccc23)[C@@H]1c1ccc(NC(=O)OCCCCC)cc1` [Compound B-100], the 50% inhibitory concentration (IC50) in the data set with SJSA-1 (setting [6]) amounted to 0.04 µM; in the data set on 786-O (Table B-3, 786-O cells), 0.0285 µM; in the data set with A431 (Table B-3, A431 cells) it was 7.84 µM.
`C#CC(=O)N1[C@@H](CCCC)Cc2c([nH]c3c(F)cc(F)cc23)[C@@H]1CCC` [Compound C-3]: the IC50 in the data set with SJSA-1 (setting [9]) is 0.22 µM; in the data set with 786-O (Table C-3, 786-O cells), 0.14 µM; in the data set on A431 (Table C-3, A431 cells), over 10 µM.
For `C#CC(=O)N1[C@@H](CCCC)Cc2c([nH]c3c(F)cc(F)cc23)[C@@H]1CCCC` [Compound C-4], the half-inhibitory concentration (IC50) stood at 0.045 µM in the data set on SJSA-1 (setting [9]); 0.048 µM with 786-O (Table C-3, 786-O cells); 4.4 µM with A431 (Table C-3, A431 cells).
Turning to `C#CC(=O)N1[C@@H](CCCC)Cc2c([nH]c3c(F)cc(F)cc23)[C@@H]1CC(C)C` [Compound C-5], the half-maximal inhibitory concentration (IC50) in the data set on SJSA-1 (setting [9]) is 0.22 µM; with 786-O (Table C-3, 786-O cells), 0.22 µM; in the data set with A431 (Table C-3, A431 cells), over 10 µM.
Turning to `C#CC(=O)N1[C@@H](CCCC)Cc2c([nH]c3c(F)cc(F)cc23)[C@@H]1CCCCCCCCCCCCCCC` [Compound C-6], the IC50 in the data set with SJSA-1 (setting [9]) is over 10 µM; in the data set with 786-O (Table C-3, 786-O cells) it was over 10 µM; in the data set on A431 (Table C-3, A431 cells) it was over 10 µM.
As to `C#CC(=O)N1[C@@H](CCCC)Cc2c([nH]c3c(F)cc(F)cc23)[C@@H]1COCCOC` [Compound C-7], the 50% inhibitory concentration (IC50) amounted to 0.093 µM in the data set on SJSA-1 (setting [9]); 0.043 µM in the data set on 786-O (Table C-3, 786-O cells); 6.8 µM in the data set on A431 (Table C-3, A431 cells).
The like results for `C#CC(=O)N1[C@@H](CCCC)Cc2c([nH]c3ccccc23)[C@]1(C)c1ccc(F)cc1` [Compound C-11] were, in that order, 0.22 µM, 0.098 µM and over 10 µM.
As for `CCCC[C@H]1Cc2c([nH]c3ccccc23)[C@](C)(c2ccc(F)cc2)N1C(=O)CCl` [Compound C-14], the 50% inhibitory concentration (IC50) is 0.017 µM with SJSA-1 (setting [9]); 0.017 µM with 786-O (Table C-3, 786-O cells); over 10 µM in the data set on A431 (Table C-3, A431 cells).
For `C#CC(=O)N1[C@@H](CCCC)Cc2c([nH]c3c(F)cc(F)cc23)[C@@H]1CCCCCCCC` [Compound C-21], the IC50 was 0.08 µM in the data set with SJSA-1 (setting [9]); 0.07 µM with 786-O (Table C-3, 786-O cells); 9.4 µM in the data set on A431 (Table C-3, A431 cells).
In the case of `C#CC(=O)N1[C@@H](C)Cc2c([nH]c3ccccc23)[C@]1(C)c1ccc(F)cc1` [Compound C-37], the IC50 in the data set with SJSA-1 (setting [9]) is 0.054 µM; in the data set with 786-O (Table C-3, 786-O cells) it was 0.017 µM; with A431 (Table C-3, A431 cells), over 10 µM.
